One assay has as its target T1, XIAP BIR3 (Homo sapiens, UniProt P98170).
T1 construct: His-BIR3 (241-356, XIAP)
Description: XIAP-BIR3/SMAC Homogeneous Time Resolved Fluorescence (HTRF) Assay. The format is binding. The conditions noted are these: 1 nM N-His-BIR3 (241-356, XIAP), 5 nM fluorescein labeled SMAC peptide; HTRF signal; read-out: XIAP BIR3 IC50. In a few lines:
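Competition HTRF between XIAP-BIR3 and SMAC; reaction 60 min at room temperature, then anti-6×His-terbium Fab detection for a further 30 min.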

A further assay has as its target T2, XIAP BIR2-3 (Homo sapiens, UniProt P98170, C202A/C213G).
T2 construct: His-BIR2-3 (125-356, C202A/C213G, XIAP)
As to the kind of experiment: XIAP-BIR2-3 dimeric SMAC Peptide Homogeneous Time Resolved Fluorescence (HTRF) Assay. The format is binding. The conditions noted are these: 0.5 nM N-His-BIR2-3 (125-356, C202A/C213G, XIAP), 20 nM fluorescein labeled dimeric SMAC peptide; HTRF signal; read-out: XIAP BIR2-3 IC50. How it is done: B. […] Assays were performed in black, flat-bottom, 384-well plates. […] Compounds were dissolved at 3 mM in dimethylsulfoxide (DMSO) and evaluated at eleven serially diluted concentrations. IC50 and Ki values were derived by non-linear regression analysis.

T2 sequence (P98170 125-356 C202A/C213G): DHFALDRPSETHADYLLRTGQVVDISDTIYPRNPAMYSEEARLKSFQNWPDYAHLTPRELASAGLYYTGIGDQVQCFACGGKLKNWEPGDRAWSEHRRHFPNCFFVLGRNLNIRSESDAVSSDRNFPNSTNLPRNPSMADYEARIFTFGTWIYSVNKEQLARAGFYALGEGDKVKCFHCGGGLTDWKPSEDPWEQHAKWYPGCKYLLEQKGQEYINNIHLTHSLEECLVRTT
T1 sequence (P98170 241-356): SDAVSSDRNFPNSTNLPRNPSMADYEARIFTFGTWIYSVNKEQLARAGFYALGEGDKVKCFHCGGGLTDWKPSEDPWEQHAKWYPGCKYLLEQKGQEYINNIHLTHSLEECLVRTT

On to `CN[C@@H](C)C(=O)N[C@H](C(=O)N1Cc2cc([C@H]3C[C@@H](C(=O)N[C@@H]4CCCc5ccccc54)N(C(=O)[C@@H](NC(=O)[C@H](C)NC)C(C)(C)C)C3)ccc2C[C@H]1C(=O)N[C@@H](Cc1ccccc1)C(=O)OC)C(C)(C)C` [Example 40, (S)-Methyl 2-((S)-2-((S)-3,3-dimethyl-2-((S)-2-(methylamino)propanamido)butanoyl)-7-((3R,5S)-1-((S)-3,3-dimethyl-2-((S)-2-(methylamino)propanamido)butanoyl)-5-(((R)-1,2,3,4-tetrahydronaphthalen-1-yl)carbamoyl)pyrrolidin-3-yl)-1,2,3,4-tetrahydroisoquinoline-3-carboxamido)-3-phenylpropanoate], for which the half-inhibitory concentration (IC50) came to 1.5 nM at XIAP BIR3 and 0.9 nM on XIAP BIR2-3.

Take `CN[C@@H](C)C(=O)N[C@H](C(=O)N1Cc2cc([C@H]3C[C@@H](C(=O)N[C@@H]4CCCc5ccccc54)N(C(=O)[C@@H](NC(=O)[C@H](C)NC)C(C)(C)C)C3)ccc2C[C@H]1C(=O)N[C@@H](Cc1ccccc1)C(=O)O)C(C)(C)C` [Example 41, (S)-2-((S)-2-((S)-3,3-Dimethyl-2-((S)-2-(methylamino)propanamido)butanoyl)-7-((3R,5S)-1-((S)-3,3-dimethyl-2-((S)-2-(methylamino)propanamido)butanoyl)-5-(((R)-1,2,3,4-tetrahydronaphthalen-1-yl)carbamoyl)pyrrolidin-3-yl)-1,2,3,4-tetrahydroisoquinoline-3-carboxamido)-3-phenylpropanoic acid]: the IC50 on XIAP BIR3 came to 4.6 nM; at XIAP BIR2-3 it was 1.5 nM.

Turning to `CN[C@@H](C)C(=O)N[C@H](C(=O)N1Cc2cc([C@H]3C[C@@H](C(=O)N[C@@H]4CCCc5ccccc54)N(C(=O)[C@@H](NC(=O)[C@H](C)NC)C(C)(C)C)C3)ccc2C[C@H]1C(=O)N[C@@H](Cc1ccccc1)C(=O)N(C)C)C(C)(C)C` [Example 42, (S)-2-((S)-3,3-Dimethyl-2-((S)-2-(methylamino)propanamido)butanoyl)-7-((3R,5S)-1-((S)-3,3-dimethyl-2-((S)-2-(methylamino)propanamido)butanoyl)-5-(((R)-1,2,3,4-tetrahydronaphthalen-1-yl)carbamoyl)pyrrolidin-3-yl)-N—((S)-1-(dimethylamino)-1-oxo-3-phenylpropan-2-yl)-1,2,3,4-tetrahydroisoquinoline-3-carboxamide], the IC50 stood at 1.6 nM at XIAP BIR3 and 1.2 nM on XIAP BIR2-3.

On to `CN[C@@H](C)C(=O)N[C@H](C(=O)N1Cc2cc([C@H]3C[C@@H](C(=O)N[C@@H]4CCCc5ccccc54)N(C(=O)[C@@H](NC(=O)[C@H](C)NC)C(C)(C)C)C3)ccc2C[C@H]1C(=O)N[C@@H](Cc1ccccc1)C(=O)N1CCOCC1)C(C)(C)C` [Example 43, (S)-2-((S)-3,3-Dimethyl-2-((S)-2-(methylamino)propanamido)butanoyl)-7-((3R,5S)-1-((S)-3,3-dimethyl-2-((S)-2-(methylamino)propanamido)butanoyl)-5-(((R)-1,2,3,4-tetrahydronaphthalen-1-yl)carbamoyl)pyrrolidin-3-yl)-N—((S)-1-morpholino-1-oxo-3-phenylpropan-2-yl)-1,2,3,4-tetrahydroisoquinoline-3-carboxamide], for which the 50% inhibitory concentration (IC50) amounted to 2 nM at XIAP BIR3 and 1.3 nM on XIAP BIR2-3.

In the case of `CN[C@@H](C)C(=O)N[C@H](C(=O)N1Cc2cc([C@H]3C[C@@H](C(=O)N[C@@H]4CCCc5ccccc54)N(C(=O)[C@@H](NC(=O)[C@H](C)NC)C(C)(C)C)C3)ccc2C[C@H]1C(=O)N[C@H](COCCO)Cc1ccccc1)C(C)(C)C` [Example 44, (S)-2-((S)-3,3-Dimethyl-2-((S)-2-(methylamino)propanamido)butanoyl)-7-((3R,5S)-1-((S)-3,3-dimethyl-2-((S)-2-(methylamino)propanamido)butanoyl)-5-(((R)-1,2,3,4-tetrahydronaphthalen-1-yl)carbamoyl)pyrrolidin-3-yl)-N—((S)-1-(2-hydroxyethoxy)-3-phenylpropan-2-yl)-1,2,3,4-tetrahydroisoquinoline-3-carboxamide], the half-inhibitory concentration (IC50) at XIAP BIR3 came to 10.3 nM; on XIAP BIR2-3, 17.4 nM.

For the origin of these results see patent publication US8889712B2, “IAP antagonists” (Bristol-Myers Squibb Company, priority 2012, dated 2014).
